Experimental data from ChEMBL document CHEMBL1143362, “Development of dual-acting prodrugs for circumventing multidrug resistance” (Bioorg Med Chem Lett, 2009).
Active and inactive are the calls of the source. The rule behind the calls is not given here.

Assays:
Mus musculus [1] = experiment: Toxicity in nude mouse assessed as body weight change at 100.8 mg/kg, iv measured daily for 13 days; type: organism-based; set-up: dose 100.8 mg/kg, route intravenous; conditions: in vivo, 312 h
MT3 [2] = experiment: Antitumor activity against adriablastin-resistant human MT3 cells expressing p-glycoprotein xenografted in NMRI nude mouse at 6 mg/kg, iv administered on day 13 and 20; type: functional, organism-based; set-up: dose 6 mg/kg
Mus musculus [3] = experiment: Toxicity in NMRI nude mouse xenografted with adriablastin-resistant human MT3 cells expressing p-glycoprotein assessed as body weight loss at 5 mg/kg, ip administered on day 12, 13, 19, 20 prior to doxorubicin challenge of 6 mg/kg, iv on day 13 and 20; type: organism-based; conditions: in vivo
MT3 [4] = experiment: Potentiation of doxorubicin-induced cytotoxicity in adriablastin-resistant human MT3 cells expressing p-glycoprotein xenografted in NMRI nude mouse at 5 mg/kg, ip administered on day 12, 13, 19, 20 prior to doxorubicin challenge of 6 mg/kg, iv on day 13 and 20; type: functional, organism-based

For CCOC/C=C/c1ccc(-c2nc(-c3ccc(N(C)C)cc3)c(-c3ccc(NC(=O)CCNC(=O)OCc4ccc(NC(=O)[C@H](CCCCN)NC(=O)[C@H](Cc5ccccc5)NC(=O)CC[C@H](NC(=O)CCCCCN5C(=O)C=CC5=O)C(=O)N[C@@H](Cc5ccccc5)C(=O)N[C@@H](CCCCN)C(=O)Nc5ccc(COC(=O)N[C@H]6C[C@H](O[C@H]7C[C@@](O)(C(=O)CO)Cc8c(O)c9c(c(O)c87)C(=O)c7c(OC)cccc7C9=O)O[C@@H](C)[C@H]6O)cc5)cc4)cc3)[nH]2)cc1.O=C(O)C(F)(F)F.O=C(O)C(F)(F)F, the Activity (Mus musculus [1]) was “Non-toxic”.
In the case of COc1cccc2c1C(=O)c1c(O)c3c(c(O)c1C2=O)C[C@@](O)(C(=O)CO)C[C@@H]3O[C@H]1C[C@H](N)[C@H](O)[C@H](C)O1, the Activity (MT3 [2]) is reported as “inactive”.
For CCOC/C=C/c1ccc(-c2nc(-c3ccc(N(C)C)cc3)c(-c3ccc(NC(=O)CCN)cc3)[nH]2)cc1, the Activity (Mus musculus [3]) was -23% and the Activity (MT3 [4]) was “Active”.
